# Laboratory results published in patent US10684290B2, “LKB1 related diagnostics and treatments of cancer” (Dignity Health, priority 2014, dated 2020).
# Tests used:
# [1] = Chronic dosing tolerability in vivo
# [2] = tested on: A427-KDLKB1 and A427-LKB1 cells; assay: ATP measurement/cell viability (CellTiter-Glo), A427; format: cell-based, human; conditions: 48 h; 2DG 10 mM, Tm 1.25 μg/ml, BFA 30 ng/ml; p<0.005
# Description: 500 H838 or A427 cells stably expressing either LKB1 or KDLKB1 were plated in 96 well plates. The following day, cells were dosed with the indicated treatments for 48 h. Cellular ATP levels were assessed using the CellTiter-Glo Luminescent Cell Viability Assay substrate (Promega) according to manufacturer's instructions. Luminescence was read using the DTX 880 Multimode Detector. Cellular ATP/cell viability was calculated relative to vehicle treated control.
# [3] = tested on: H838-KDLKB1 and H838-LKB1 cells; assay: Immunoblot of ER stress markers in H838-LKB1 and H838-KDLKB1 cells; format: cell-based, human; conditions: 12 h; 2DG 10 mM, Tm 1.25 ug/ml, BFA 30 ng/ml
# Description: Cells were washed once with ice-cold PBS and incubated on ice for 30 min with a lysis buffer containing 10 mM Tris-HCl, 150 mM NaCl, 0.1% SDS and 1% IGEPAL (Sigma) to which a protease inhibitor cocktail (Sigma) and two phosphatase cocktails I and II (Sigma) were added immediately before use. Lysates were transferred to tubes and insoluble material was pelleted by centrifugation. For immunoblotting, 50-100 μg of total protein lysates were separated by SDS-PAGE and transferred to nitrocellulose. Blots were blocked in 5% milk/Tris buffered saline/0.1% TWEEN® 20 (polyoxyethylenesorbitan monolaurate) (TBST) and primary antibodies were diluted in 5% Bovine Serum Albumin (Sigma)/TBST and incubated overnight at 4° C. Blots were developed with ECL plus (GE) and visualized on a Kodak Image station.
# [4] = tested on: H838-KDLKB1 cells; assay: Clonogenic survival of H838-LKB1 and H838-KDLKB1 cells; format: cell-based, human; conditions: 24 h; 2DG 10 mM, Tm 1.25 μg/ml, BFA 30 ng/ml
# Description: Clonogenic survival assay were performed in 6 well dishes. Briefly, 200 of indicated cells were plated per well and allowed to attach overnight. Were indicated cells were pre-treated with 125 ng/ml of cyclohexamide (CHX) for one hour. Indicated drugs were diluted fresh into media and cells were treated for 24 h, at which time the drug containing media was removed and replaced with fresh media. After 14 days, cells were fixed in 10% Methanol/10% Acetic Acid and stained with 0.5% crystal violet. After washing in ddH2O, plates were allowed to dry and colonies of 50 cells or more were counted. The surviving fraction was calculated according to methods described by Franken et al. [Clonogenic assay of cells in vitro, NAT. PROT. 1 (5) (2006) 2315-2319].
# [5] = tested on: LKB1 expressing and LKB1 null LA/NSCLC cell lines; assay: Immunoblot of pAMPK and cleaved PARP in LKB1 expressing and LKB1 null cell lines; format: cell-based, human; conditions: 20 mM
# Description: Cells were incubated on ice for 30 minutes with a lysis buffer containing 10 mM Tris-HCL, 150 mM NaCl, 0.1% SDS and 1% IGEPAL (Sigma). Immediately before use, a protease inhibitor cocktail (Sigma) and two phosphatase cocktails I and II (Sigma) were added to the lysis buffer. Lysates were transferred to tubes and insoluble material was pelleted by centrifugation. Nuclear protein fractions were isolated using a NE-PER protein extraction kit (ThermoFisher) according to manufacturer's instructions. Protein concentration was determined using the Bio-Rad DC protein kit. For immunoblotting, 50-100 ug of total protein lysates was separated by SDS-PAGE and transferred to nitrocellulose. Blots were blocked in 5% milk/Tris buffered saline/0.1% TWEEN® 20 (polyoxyethylenesorbitan monolaurate) (TBST) and primary antibodies were diluted in 5% Bovine Serum Albumin (Sigma)/TBST and incubated overnight at 4° C. Blots were developed with ECL plus (GE) and visualized on a Kodak Image station.
# Cells were washed once with ice-cold PBS and incubated on ice for 30 min with a lysis buffer containing 10 mM Tris-HCl, 150 mM NaCl, 0.1% SDS and 1% IGEPAL (Sigma) to which a protease inhibitor cocktail (Sigma) and two phosphatase cocktails I and II (Sigma) were added immediately before use. Lysates were transferred to tubes and insoluble material was pelleted by centrifugation. […]
compound,measurement,setting,value
"O=CC[C@@H](O)[C@H](O)[C@H](O)CO [2DG, 2-deoxy-D-glucose]",Tolerability of chronic dosing,[1],poorly tolerated
same,Cellular ATP in A427-KDLKB1 compared to A427 re-expressing LKB1,[2],reduced ATP
same,Phosphorylated eIF2a in H838-KDLKB1 compared to H838-LKB1 cells,[3],increased levels of phosphorylated eIF2a
same,Clonogenic cell survival of H838-KDLKB1 cells,[4],reduced cell survival
same,Phosphorylation of AMPK in LKB1 expressing H2009 cells (not in LKB1-deficient H23 cells),[5],resulted in phosphorylation of AMPK
same,"Cleavage of PARP (apoptosis) in LKB1 null LA cells (H2126, H838, H1395)",[5]; 12 and 18 hours,increased cleavage of poly(ADP-ribose) polymerase (PARP)
